One experiment addresses T1, human GLP-1R receptor (Homo sapiens, UniProt P43220, L260F).
T1 construct: expressed in transfected cells; host or cells: CHO-K1 (ATCC CCL-61)
In words: CHOK1 GLP-1R cAMP assay (HTRF). The class given is cell-based. The note with it: CHO-K1 cells stably expressing human GLP-1R. Summed up: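 Cells were CHO-K1 stably expressing human GLP-1R (Leu260Phe variant), at 800 cells/well in HEPES pH 7.4/HBSS/0.1% BSA with IBMX, stimulated 20 min at rt. cAMP was measured by competitive HTRF and converted via a standard curve. EC50 came from a 4-parameter logistic fit, with % effect relative to a saturating GLP-1(7-36)NH2 concentration.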
On the technique in general: Changes in cAMP serve as a functional read-out for many G protein-coupled receptors.

Another experiment addresses T2, GLP-1R (Homo sapiens, UniProt P43220).
T2 construct: host or cells: EndoC-βH1
In words: EndoC cAMP accumulation assay (HTRF, EndoC-βH1 cells). It is filed as cell-based. The note with it: EndoC-βH1 human pancreatic β cell line. The method, boiled down:
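Thawed cryopreserved EndoC-βH1 cells, about 3000 per well, were stimulated for 30 min at room temperature. Buffer was HBSS with 25 mM HEPES pH 7.4, 0.1% BSA and 0.5 mM IBMX. cAMP was measured by competitive HTRF after 1 h lysis/detection (590/660 nm). Four-parameter fits gave % activation between basal and maximal GIP (82.5 nM) signal.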

Experiment [1] concerns the target T3, human phosphodiesterase-3A (Homo sapiens, UniProt Q14432).
T3 construct: host or cells: Sf9 (Spodoptera frugiperda)
Kind of experiment: PDE3 assay (formation of 5'AMP from cAMP, SPA). The class given is biochemical. Conditions: human recombinant enzyme expressed in Sf9 cells. On the procedure: Evaluation of the effects of compounds on the activity of the human phosphodiesterase-3A is quantified by measuring the formation of 5′AMP from cAMP using a human recombinant enzyme expressed in a clonal isolate of Spodoptera frugiperda cells (Sf9) cells.
The test compound, reference compound or water (control) are added to a buffer containing 40 mM tris(hydroxymethyl)aminomethane (Tris)/HCl (pH 7.4) and 8 mM MgCl2, 450 nMcAMP and 0.25 μCi [3H]cAMP.
Thereafter, the reaction is initiated by addition of the enzyme (about 1 U) and the mixture is incubated for 20 min at 22° C.
For basal control measurements, the enzyme is omitted from the reaction mixture.
Following incubation SPA beads are added. After 30 min at 22° C. under shaking, the amount of [^3H]5′AMP is quantified with a scintillation counter (Topcount, Packard).
The results are expressed as a percent inhibition of the control enzyme activity. The standard inhibitory reference compound is milrinone (CAS number 78415-72-2), which is tested in each experiment at several concentrations to obtain an inhibition curve from which its IC50 value is calculated.

The structures appear in SMILES notation.

T2 sequence (P43220 24-463): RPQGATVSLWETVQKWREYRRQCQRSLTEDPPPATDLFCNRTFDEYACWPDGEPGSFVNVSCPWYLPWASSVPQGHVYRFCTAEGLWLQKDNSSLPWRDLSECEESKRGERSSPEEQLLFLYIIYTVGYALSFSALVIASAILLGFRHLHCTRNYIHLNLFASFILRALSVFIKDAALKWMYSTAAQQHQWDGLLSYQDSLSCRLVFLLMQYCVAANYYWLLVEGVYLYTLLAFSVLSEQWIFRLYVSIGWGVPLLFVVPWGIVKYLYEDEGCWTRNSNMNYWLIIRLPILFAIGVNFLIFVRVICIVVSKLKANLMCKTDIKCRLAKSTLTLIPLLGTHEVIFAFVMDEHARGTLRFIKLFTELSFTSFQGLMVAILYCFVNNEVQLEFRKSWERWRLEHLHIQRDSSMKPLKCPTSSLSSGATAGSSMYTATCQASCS
T1 sequence (P43220 24-463 L260F): as the sequence (P43220 24-463) above, with L237F counted along it
T3 sequence (Q14432 whole entry): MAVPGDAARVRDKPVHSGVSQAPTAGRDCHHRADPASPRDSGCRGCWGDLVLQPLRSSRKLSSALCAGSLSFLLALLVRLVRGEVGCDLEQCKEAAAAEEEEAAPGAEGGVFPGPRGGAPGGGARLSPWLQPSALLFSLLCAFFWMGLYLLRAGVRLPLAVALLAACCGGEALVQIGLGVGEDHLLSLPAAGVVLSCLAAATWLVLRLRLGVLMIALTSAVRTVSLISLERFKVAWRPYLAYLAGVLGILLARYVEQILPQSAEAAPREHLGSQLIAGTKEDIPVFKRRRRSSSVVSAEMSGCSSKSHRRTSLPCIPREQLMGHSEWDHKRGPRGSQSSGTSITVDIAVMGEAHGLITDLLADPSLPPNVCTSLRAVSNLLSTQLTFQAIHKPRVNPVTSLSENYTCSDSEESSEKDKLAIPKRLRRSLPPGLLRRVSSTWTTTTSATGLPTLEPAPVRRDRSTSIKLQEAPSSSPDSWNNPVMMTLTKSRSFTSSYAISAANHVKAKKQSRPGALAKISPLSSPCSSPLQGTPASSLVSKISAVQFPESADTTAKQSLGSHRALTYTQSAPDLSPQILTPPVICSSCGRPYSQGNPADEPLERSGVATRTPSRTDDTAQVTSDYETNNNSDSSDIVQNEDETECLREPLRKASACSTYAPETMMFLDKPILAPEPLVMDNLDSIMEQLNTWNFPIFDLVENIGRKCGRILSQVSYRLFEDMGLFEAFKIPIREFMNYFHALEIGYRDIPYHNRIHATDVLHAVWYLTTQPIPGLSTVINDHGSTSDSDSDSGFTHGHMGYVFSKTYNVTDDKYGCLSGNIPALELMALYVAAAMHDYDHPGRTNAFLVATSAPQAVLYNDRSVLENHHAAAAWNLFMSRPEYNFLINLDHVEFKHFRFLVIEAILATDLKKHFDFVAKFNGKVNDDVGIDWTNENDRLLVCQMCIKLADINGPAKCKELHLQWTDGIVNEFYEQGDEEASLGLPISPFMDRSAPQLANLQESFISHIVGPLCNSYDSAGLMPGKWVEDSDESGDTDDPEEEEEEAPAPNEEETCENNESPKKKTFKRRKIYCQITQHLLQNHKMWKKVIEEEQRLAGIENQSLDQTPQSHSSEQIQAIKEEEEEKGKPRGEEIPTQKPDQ

By EC50 is commonly meant the concentration that produces a half-maximal response. Broadly, the IC50 is the concentration at which inhibition is half-maximal. Regarding `COc1cc(C(=O)O)cc2c1nc(CN1CCN(c3cccc(OCc4ccc(Cl)cc4F)n3)[C@@H]3COC[C@@H]31)n2C[C@@H]1CCO1` (single isomer, unassigned) [Example 16a, 2-(((4aR*,7aS*)-4-(6-((4-Chloro-2-fluorobenzyl)oxy)pyridin-2-yl)hexahydrofuro[3,4-b]pyrazin-1(2H)-yl)methyl)-4-methoxy-1-(((S)-oxetan-2-yl)methyl)-1H-benzo[d]imidazole-6-carboxylic acid], the half-maximal effective concentration (EC50) at human GLP-1R receptor worked out at 0.63 nM; at GLP-1R, 1.9 nM. The concentration for half-maximal inhibition (IC50) in experiment [1] turned out to be 29000 nM.

For the compound `O=C(O)c1cc(F)c2nc(CN3CCN(c4cccc(OCc5ccc(Cl)cc5F)n4)[C@@H]4COC[C@@H]43)n(C[C@@H]3CCO3)c2c1` (single isomer, unassigned) [Example 19a, 2-(((4aR*,7aS*)-4-(6-((4-Chloro-2-fluorobenzyl)oxy)pyridin-2-yl)hexahydrofuro[3,4-b]pyrazin-1(2H)-yl)methyl)-4-fluoro-1-(((S)-oxetan-2-yl)methyl)-1H-benzo[d]imidazole-6-carboxylic acid], the 50% effective concentration (EC50) at human GLP-1R receptor worked out at 1.5 nM; at GLP-1R, 4 nM. Besides, in experiment [1], the IC50 was 22000 nM.

The values above are taken from patent publication US20250115612A1, “CERTAIN 2,5-DIAZABICYCLO[4.2.0]OCTANES AND OCTAHYDROFURO[3,4-B]PYRAZINES AS GLP-1 RECEPTOR MODULATORS” (ASTRAZENECA AB, priority 2021, published 2025).
